Experimental data reported in PMC4222603, “Dual inhibition of HIV-1 replication by integrase-LEDGF allosteric inhibitors is predominant at the post-integration stage” (Retrovirology, 2013).
Where two headings read alike, the source gives them in different places.

Experiments:
[1] = system: NL4-3 RT M41L, D67N, K103N, M184V, L210W, T215Y; assay: Antiviral assay on Multi-drug (NRTI + NNRTI) resistant virus; assay type: cell-based, HIV-1; settings: ratio EC50 resistant virus / wt virus; NRTI + NNRTI mutations
[2] = system: NL4-3 RT M41L, D67N, T69N, K70R, T215F, K219E; assay: Antiviral assay on NRTI-resistant virus; assay type: cell-based, HIV-1; settings: ratio EC50 resistant virus / wt virus
NL4-3 RT K103N, Y181C = assay: Antiviral assay on NNRTI-resistant virus; assay type: cell-based, HIV-1; settings: ratio EC50 resistant virus / wt virus
[3] = system: NL4-3 Integrase G140S, Q148H; assay: Antiviral assay on INSTI-resistant virus; assay type: cell-based, HIV-1; settings: ratio EC50 resistant virus / wt virus
HIV-1 NL4-3 = assay: Antiviral assay in MT-4 cells, multiple-round infection, CellTiter-Glo; assay type: cell-based
Experimental: MT-4 cells growing exponentially at the density of 10^6/mL were infected with HIV-1 strain NL4-3 at a MOI (multiplicity of infection) of 0.001 for 2 h. The cells were washed with PBS and aliquoted, using 100 μL fresh complete RPMI, into 96-well white plates (Corning) in the presence of different concentrations of compounds.

[4] = system: VSV-G-pseudotyped NL4-3Δenv-luc; assay: microbe, parasite or virus in culture; assay type: cell-based, HIV-1; settings: for EC50: Human immunodeficiency virus 1, NL43, MT4, read-out: NL4-3 EC50 Single-round
[5] = system: NL4-3 Protease L10R, M46I, L63P, V82T, I84V; assay: Antiviral assay on PI-resistant virus; assay type: cell-based, HIV-1; settings: ratio EC50 resistant virus / wt virus
in vitro = assay type: cell-based; settings: human
Experimental: Growth inhibition was monitored in a proliferating human T-cell line (MT-4) with different concentrations of compounds. ATP levels were quantified using the CellTiter-Glo® luminescent reagent (Promega) to measure the ability of a compound to inhibit cell growth, an indication of the compound’s cytotoxicity. Cytotoxicity was evaluated at either day 2 or day 5.

IN-LEDGF/p75 interaction = IN-LEDGF/p75 interaction (Human immunodeficiency virus type 1 group M subtype B, UniProt P12497); assay: biochemical; settings: IN-LEDGF IC50, Table 1; HTRF, full length proteins
Experimental: IN-LEDGF HTRF® assay was performed in 384-well low volume black polystyrene plates (Corning) using IN-LEDGF assay buffer (25 mM Tris–HCl pH 7.4, 150 mM NaCl, 2 mM MgCl2, 0.4 M KF, 0.1% Igepal CA-630, 0.1% bovine serum albumin, 1 mM DTT). […] The HTRF ratio was converted to % inhibition and analyzed by fitting a sigmoidal dose–response equation with Hill slope to determine the IC50 of the compound.

[6] = target: T1, IN-CCD/LEDGF-IBD interaction (Human immunodeficiency virus type 1 group M subtype B, UniProt P12497, F1332K); assay: HTRF-based CCD-IBD interaction assay; assay type: binding, HIV-1; settings: Table 1
T1 construct: cloning the integrase region (residues 50 to 202, encoding the catalytic core domain); made in house
Excerpt: All HTRF® conjugated monoclonal antibodies were purchased from Cisbio Bioassays.

HxB2 HIV-1 = assay: Antiviral assay in MT4 cells infected with HxB2; assay type: cell-based; settings: Human immunodeficiency virus 1, HXB2, MT4; Table 1; read-out: HxB2 EC50 (MT4 assays)
[7] = target: T2, IN strand transfer activity (Human immunodeficiency virus type 1 group M subtype B, UniProt P12497); assay: IN strand transfer ELISA assay; assay type: biochemical, HIV-1; settings: for IC50: Table 1, ELISA, read-out: IN ST IC50; for IN ST plateau (%): inhibition plateau, concentrations up to 100 μM
T2 construct: loaded on a Superdex 200 16/600 PG column (for full length IN); made in house
Experimental: IN strand transfer ELISA assay has been adapted from. […] 16 μL of IN mixture (20 mM HEPES pH 7.5, 10 mM MgCl2, 1 mM DTT, 0.50 μM His6-IN) was added. […] The reaction was stopped by addition of 60 μL stop mixture (20 mM Tris–HCl pH 7.6, 0.4 M NaCl, 10 mM Na2EDTA, 0.1 mg/mL salmon sperm DNA) and the volume transferred to Reacti-Bind high-binding capacity streptavidin-coated white plates (Thermo Scientific Pierce). After 1 h incubation at room temperature under gentle shaking, integrase and unjoined DNA were removed by three washes with 200 μL wash solution 1 (30 mM NaOH, 0.2 M NaCl, 1 mM Na2EDTA). 100 μL of 2000-fold diluted HRP-conjugated anti-DIG Fab (Roche Applied Science) was added and the plate was incubated for 1 h at 37°C. Unbound antibody was removed with wash solution 2 (PBS pH 7.4, 0.05% Tween-20, 0.1% bovine serum albumin), 100 μL of SuperSignal Femto ELISA substrate (Thermo Scientific Pierce) was added and chemiluminescence was immediately read in a PHERAstar Plus with LUM-plus module. The signal, converted to % inhibition, was analyzed by fitting a sigmoidal dose–response curve to determine IC50 and the inhibition plateau.

[8] = system: HIV-1 LAV virions produced by HeLa-LAV cells; assay: Virions produced by compound-treated HeLa-LAV cells: p24 and infectivity; assay type: cell-based; settings: luciferase assay in TZM cells
[9] = system: NL4-3 IN T174I mutant virus; assay type: cell-based, HIV-1; settings: HEK293T transfection, MT4 infection, CellTiter-Glo
HIV-1 NL4-3 wt = assay type: cell-based; settings: HEK293T transfection, MT4 infection, CellTiter-Glo
[10] = Human immunodeficiency virus 1, NL43, MT4, Table 3, mean of two independent experiments, read-out: EC50 NL4-3 WT
[11] = Human immunodeficiency virus 1, NL43, MT4 cells, mean of six independent experiments, read-out: NL4-3 EC50 Multiple-round
[12] = Human immunodeficiency virus 1, NL43, MT4, Table 1, read-out: NL4-3 EC50 (MT4 assays)

Row | SMILES | EC50 fold change Multi-drug [1] | EC50 fold change NRTIs [2] | EC50 fold change NNRTIs (NL4-3 RT K103N, Y181C) | EC50 fold change INSTIs [3] | EC50 (HIV-1 NL4-3; [10]) | EC50 [4] | EC50 fold change PI [5] | EC50 (HIV-1 NL4-3; [11]) | SR/MR ratio [4] | CC50 (in vitro) | EC50 (HIV-1 NL4-3; [12]) | IC50 (IN-LEDGF/p75 interaction) | IC50 [6] | EC50 (HxB2 HIV-1) | IC50 [7] | other results
1 | Cc1cn([C@H]2C[C@H](N=[N+]=[N-])[C@@H](CO)O2)c(=O)[nH]c1=O [AZT, Zidovudine] | 10 | 88 | 0.1 | 0.4 | 140 nM | 2.5 ± 0.3 nM | 1 |  |  |  |  |  |  |  |  | 
2 | O=C1Nc2ccc(Cl)cc2[C@@](C#CC2CC2)(C(F)(F)F)O1 [EFV, Efavirenz, reference compound] |  |  |  |  |  | 1.2 ± 0.4 nM |  | 1.3 ± 0.2 nM | 0.9 |  |  |  |  |  |  | 
3 | COc1cc2c(cc1Cc1cccc(Cl)c1F)c(=O)c(C(=O)O)cn2[C@H](CO)C(C)C [EVG, Elvitegravir] | 0.3 | 0.3 | 1 | 2036 | 3 nM | 0.42 ± 0.05 nM | 1 | 0.86 ± 0.4 nM | 0.5 |  |  |  |  |  |  | 
4 | CC(C)(C)NC(=O)[C@@H]1CN(Cc2cccnc2)CCN1C[C@@H](O)C[C@@H](Cc1ccccc1)C(=O)N[C@H]1c2ccccc2C[C@H]1O [IDV, Indinavir] | 1 | 1 | 1 | 1 | 32 nM |  | 9 | 36 nM |  |  |  |  |  |  |  | NL4-3 EC50 Single-round [4]: Inactive
5 | CC(C)(C)OC(C(=O)O)c1c(-c2ccc3c(c2)CCCO3)ccc2ncccc12 (stereo not drawn) [Mut029, 2-(tert-butoxy)-2-[6-(3,4-dihydro-2H-1-benzopyran-6-yl)quinolin-5-yl]acetic acid] |  |  |  |  |  | 30000 ± 4000 nM |  | 3800 ± 1600 nM | 8 | > 50000 nM | 3800 nM | 2500 nM | 1700 nM | 3800 nM |  | 
6 | CC(C)(C)OC(C(=O)O)c1c(-c2ccc3c(c2)CCCO3)ccc2ccccc12 (stereo not drawn) [Mut047, 2-(tert-butoxy)-2-[2-(3,4-dihydro-2H-1-benzopyran-6-yl)naphthalene-1-yl]acetic acid] |  |  |  |  |  | 37000 ± 2000 nM |  | 16000 ± 7000 nM | 2.3 | > 50000 nM | 16000 nM | 7900 nM | 3800 nM | 19000 nM | 880 nM | IN ST plateau (%) [7]: 70%
7 | Cc1nc2ccccc2c(C2CCCCC2)c1C(OC(C)(C)C)C(=O)O (stereo not drawn) [Mut049, 2-(tert-butoxy)-2-(4-cyclohexyl-2-methylquinolin-3-yl)acetic acid] |  |  |  |  |  | 41000 ± 2000 nM |  | 2000 ± 100 nM | 21 | > 50000 nM | 2000 nM | 3500 nM | 18000 nM | 750 nM | 180 nM | IN ST plateau (%) [7]: 56%
8 | CC(C)(C)OC(C(=O)O)C1=C(c2ccc3c(c2)CCCO3)c2ccccc2OC1 (stereo not drawn) [Mut062, 2-(tert-butoxy)-2-[4-(3,4-dihydro-2H-1-benzopyran-6-yl)-2H-chromen-3-yl]acetic acid] |  |  |  |  |  |  |  | 3300 ± 1500 nM | >25 | > 50000 nM | 3300 nM | 3100 nM | 2700 nM | 1300 nM | 540 nM | Inhibition in single-round infection assay [4]: 30% @50; IN ST plateau (%) [7]: 73%
9 | CC(C)(C)OC(C(=O)O)c1ccc(Oc2ccccc2)cc1-c1ccc2c(c1)CCCO2 (stereo not drawn) [Mut063, 2-(tert-butoxy)-2-[2-(3,4-dihydro-2H-1-benzopyran-6-yl)-4-phenoxyphenyl]acetic acid] |  |  |  |  |  |  |  |  |  | > 50000 nM | > 50000 nM | > 100000 nM | > 100000 nM |  | > 100000 nM | Infectivity of virions from treated HeLa-LAV cells [8]: no infectivity defect
10 | Cc1nc2c(c(-c3ccccc3)c1C(OC(C)(C)C)C(=O)O)CCCC2 (stereo not drawn) [Mut075, 2-(tert-butoxy)-2-(2-methyl-4-phenyl-5,6,7,8-tetrahydro-quinolin-3-yl)acetic acid] |  |  |  |  |  |  |  | 3400 ± 1000 nM | >25 | > 50000 nM | 3400 nM | 4000 nM | 14000 nM | 1000 nM |  | Inhibition in single-round infection assay [4]: 23% @50
11 | Cc1ccnc2c1NC(=O)c1cccnc1N2C1CC1 [NVP, Nevirapine] | 14 | 3 | 287 | 1 | 160 nM | 41 ± 8 nM | 1 | 86 ± 12 nM |  |  |  |  |  |  |  | 
12 | Cc1nnc(C(=O)NC(C)(C)c2nc(C(=O)NCc3ccc(F)cc3)c(O)c(=O)n2C)o1 [RAL, Raltegravir, reference compound] |  |  |  |  |  | 2.5 ± 0.3 nM |  |  |  |  |  |  |  |  |  | Infectivity of NL4-3 IN T174I virus produced in presence of compound [9]: no effect; EC50 (HIV-1 NL4-3; Human immunodeficiency virus 1, NL43, MT4, read-out: EC50 NL4-3 WT): 7 nM; EC50 (HIV-1 NL4-3; Human immunodeficiency virus 1, NL43, MT4, read-out: NL4-3 EC50 Multiple-round): 2.4 ± 0.6 nM; Infectivity of NL4-3 wt virus produced in presence of compound (HIV-1 NL4-3 wt): no effect; Infectivity of virions from treated HeLa-LAV cells [8]: no infectivity defect
